Measurements published in the supplement of paper PMC10307832.

What was measured:
Experiment in all cases: relative viability (nuclei count vs DMSO), 5 days (fraction); higher = more cells survive
[1] = compound: CC1=C(C=CC(=C1)[N+](=O)[O-])NS(=O)(=O)C2=C(C=CC(=C2)Cl)Cl [FH535]
Method in brief: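 Nuclei counted with MetaXpress define viability as the ratio of treated to vehicle wells, given as a median across plates. The lung cancer cell lines were in 1536-well plates, pinned with five √10-spaced library-drug doses and imaged at 4× after 5 days and Hoechst staining. Plates passed with control CV below 25% and at least one doubling.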

[2] = compound: CC1=C(C=CC(=C1)[N+](=O)[O-])NS(=O)(=O)C2=C(C=CC(=C2)Cl)Cl [FH535] + N=C(N)NC(=N)NCCc1ccccc1 [Phenformin] (partner 250 µM)
Method in brief: (§1)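 Relative viability equals treated-well nuclei counts divided by vehicle-well nuclei counts. Counts came from 4× images of lung cancer cell lines grown in 1536-well plates for 5 days after pin-tool dosing on the day after seeding. Dosing used one drug alone or a fixed anchor-drug dose plus five library-drug doses (not always all listed) in √10 steps, and values are medians of duplicate plates.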

[3] = compound: CC1=C(C=CC(=C1)[N+](=O)[O-])NS(=O)(=O)C2=C(C=CC(=C2)Cl)Cl [FH535] + COc1cc2c(Oc3ccc(NC(=O)C4(C(=O)Nc5ccc(F)cc5)CC4)cc3F)ccnc2cc1OCCCN1CCOCC1 [Foretinib] (partner 0.25 µM)
Method in brief: as §1

[4] = compound: CC1=C(C=CC(=C1)[N+](=O)[O-])NS(=O)(=O)C2=C(C=CC(=C2)Cl)Cl [FH535] + Cc1cc(Nc2cc(N3CCN(C)CC3)nc(Sc3ccc(NC(=O)C4CC4)cc3)n2)n[nH]1 [Tozasertib] (partner 0.1 µM)
Method in brief: as §1

[5] = compound: CC1=C(C=CC(=C1)[N+](=O)[O-])NS(=O)(=O)C2=C(C=CC(=C2)Cl)Cl [FH535] + CCNC(=O)c1noc(-c2cc(C(C)C)c(O)cc2O)c1-c1ccc(CN2CCOCC2)cc1 [Luminespib] (partner 0.01 µM)
Method in brief: as §1

[6] = compound: CC1=C(C=CC(=C1)[N+](=O)[O-])NS(=O)(=O)C2=C(C=CC(=C2)Cl)Cl [FH535] + COc1cccc2cc(-c3nc([C@H]4CC[C@H](C(=O)O)CC4)n4ncnc(N)c34)[nH]c12 [OSI-027] (partner 0.5 µM)
Method in brief: as §1

[7] = compound: CC1=C(C=CC(=C1)[N+](=O)[O-])NS(=O)(=O)C2=C(C=CC(=C2)Cl)Cl [FH535] + Cc1nc(Nc2ncc(C(=O)Nc3c(C)cccc3Cl)s2)cc(N2CCN(CCO)CC2)n1 [Dasatinib] (partner 0.075 µM)
Method in brief: as §1

[8] = compound: CC1=C(C=CC(=C1)[N+](=O)[O-])NS(=O)(=O)C2=C(C=CC(=C2)Cl)Cl [FH535] + O=C(c1cc(Cc2n[nH]c(=O)c3ccccc23)ccc1F)N1CCN(C(=O)C2CC2)CC1 [Olaparib] (partner 8 µM)
Method in brief: as §1

[9] = compound: CC1=C(C=CC(=C1)[N+](=O)[O-])NS(=O)(=O)C2=C(C=CC(=C2)Cl)Cl [FH535] + Nc1nc2[nH]cc(CCc3ccc(C(=O)N[C@@H](CCC(=O)O)C(=O)O)cc3)c2c(=O)[nH]1 [Pemetrexed] (partner 0.2 µM)
Method in brief: as §1

[10] = compound: CC1=C(C=CC(=C1)[N+](=O)[O-])NS(=O)(=O)C2=C(C=CC(=C2)Cl)Cl [FH535] + CC(=O)c1c(C)c2cnc(Nc3ccc(N4CCNCC4)cn3)nc2n(C2CCCC2)c1=O [Palbociclib] (partner 0.5 µM)
Method in brief: as §1

[11] = compound: CC1=C(C=CC(=C1)[N+](=O)[O-])NS(=O)(=O)C2=C(C=CC(=C2)Cl)Cl [FH535] + CC(=O)Nc1cccc(-n2c(=O)n(C3CC3)c(=O)c3c(Nc4ccc(I)cc4F)n(C)c(=O)c(C)c32)c1 [Trametinib] (partner 0.02 µM)
Method in brief: as §1

[12] = compound: CC1=C(C=CC(=C1)[N+](=O)[O-])NS(=O)(=O)C2=C(C=CC(=C2)Cl)Cl [FH535] + Nc1ncn([C@H]2C[C@H](O)[C@@H](CO)O2)c(=O)n1 [Decitabine] (partner 2 µM)
Method in brief: as §1

[13] = compound: CC1=C(C=CC(=C1)[N+](=O)[O-])NS(=O)(=O)C2=C(C=CC(=C2)Cl)Cl [FH535] + NC(=O)Nc1cc(-c2cccc(F)c2)sc1C(=O)N[C@H]1CCCNC1 [AZD7762] (partner 0.2 µM)
Method in brief: as §1

[14] = compound: CC1=C(C=CC(=C1)[N+](=O)[O-])NS(=O)(=O)C2=C(C=CC(=C2)Cl)Cl [FH535] + O=C(CCCCCCC(=O)Nc1ccccc1)NO [Vorinostat] (partner 1 µM)
Method in brief: as §1

NCI-H1623
relative viability ([1]; 0.04 µM): 1.02
relative viability ([1]; 0.1265 µM): 0.948
relative viability ([1]; 0.4 µM): 0.991
relative viability ([1]; 1.265 µM): 0.912
relative viability ([2]; first compound 0.04 µM): 0.551
relative viability ([2]; first compound 0.1265 µM): 0.523
relative viability ([2]; first compound 0.4 µM): 0.495
relative viability ([2]; first compound 1.265 µM): 0.468
relative viability ([3]; first compound 0.04 µM): 0.816
relative viability ([3]; first compound 0.1265 µM): 0.855
relative viability ([3]; first compound 0.4 µM): 0.823
relative viability ([3]; first compound 1.265 µM): 0.777
relative viability ([4]; first compound 0.04 µM): 0.391
relative viability ([4]; first compound 0.1265 µM): 0.426
relative viability ([4]; first compound 0.4 µM): 0.426
relative viability ([4]; first compound 1.265 µM): 0.45
relative viability ([5]; first compound 0.04 µM): 0.609
relative viability ([5]; first compound 0.1265 µM): 0.574
relative viability ([5]; first compound 0.4 µM): 0.513
relative viability ([5]; first compound 1.265 µM): 0.509
relative viability ([6]; first compound 0.04 µM): 0.424
relative viability ([6]; first compound 0.1265 µM): 0.525
relative viability ([6]; first compound 0.4 µM): 0.451
relative viability ([6]; first compound 1.265 µM): 0.413
relative viability ([7]; first compound 0.04 µM): 0.515
relative viability ([7]; first compound 0.1265 µM): 0.468
relative viability ([7]; first compound 0.4 µM): 0.508
relative viability ([7]; first compound 1.265 µM): 0.478

NCI-H1648
relative viability ([1]; 0.04 µM): 0.645
relative viability ([1]; 0.1265 µM): 0.828
relative viability ([1]; 0.4 µM): 0.837
relative viability ([1]; 1.265 µM): 0.641
relative viability ([8]; first compound 0.1265 µM): 0.888
relative viability ([8]; first compound 0.4 µM): 1.08
relative viability ([8]; first compound 1.265 µM): 0.383
relative viability ([9]; first compound 0.1265 µM): 0.655
relative viability ([9]; first compound 0.4 µM): 0.532
relative viability ([9]; first compound 1.265 µM): 0.635
relative viability ([4]; first compound 0.04 µM): 0.397
relative viability ([4]; first compound 0.4 µM): 0.603
relative viability ([4]; first compound 1.265 µM): 0.281
relative viability ([10]; first compound 0.1265 µM): 0.219
relative viability ([10]; first compound 0.4 µM): 0.273
relative viability ([10]; first compound 1.265 µM): 0.225
relative viability ([11]; first compound 0.1265 µM): 0.441
relative viability ([11]; first compound 0.4 µM): 0.544
relative viability ([11]; first compound 1.265 µM): 0.352
relative viability ([12]; first compound 0.1265 µM): 0.585
relative viability ([12]; first compound 0.4 µM): 0.478
relative viability ([12]; first compound 1.265 µM): 0.398
relative viability ([6]; first compound 0.04 µM): 0.243
relative viability ([6]; first compound 0.4 µM): 0.254
relative viability ([6]; first compound 1.265 µM): 0.243
relative viability ([13]; first compound 0.1265 µM): 0.654
relative viability ([13]; first compound 0.4 µM): 0.612
relative viability ([13]; first compound 1.265 µM): 0.625
relative viability ([14]; first compound 0.1265 µM): 0.595
relative viability ([14]; first compound 0.4 µM): 0.709
relative viability ([14]; first compound 1.265 µM): 0.473
